From paper PMC10683025, “Discovery of a Hydroxylamine-Based Brain-Penetrant EGFR Inhibitor for Metastatic Non-Small-Cell Lung Cancer” (Journal of Medicinal Chemistry, 2023)
Like-named read-outs stand apart in the source and are kept apart here.

Legend:
[1] = Oral CNS pharmacokinetic assessment; assay type: in vivo, Sprague-Dawley rats; settings: male, Sprague-Dawley, brain, Rat 20 mg/kg (PO)
Description: Animal experiments were performed at Pharmaron, Inc. and animal use was approved by Pharmaron’s Institutional Animal Care and Use Committee (IACUC) in Pharmaron (Pharmaron IACUC, Protocol #PK-M-07182022, #PK-R-06012022, and #ON-CELL-XEN-06012022) following the guidance of AAALAC. Six- to eight-week-old male Sprague-Dawley rats (approximately 200–300 g) obtained from Si Bei Fu Laboratory Animal Technology Co., six- to eight-week-old male CD1 mice (approximately 20–30 g) obtained from Si Bei Fu Laboratory Animal Technology Co., and six- to eight-week-old female BALB/c nude mice (approximately 20–30 g) obtained from Si Bei Fu Laboratory Animal Technology Co., were used in the pharmacokinetic studies. Six- to eight-week-old female BALB/c nude mice (approximately 18–22 g) obtained from Beijing Anikeeper Biotech Co., Ltd. were used in the intracranial PDX study. […]
Oral CNS pharmacokinetic assessment of 9 was done by oral gavage (formulation: 1% methylcellulose) followed by blood and brain sampling at 7 time points (0.25, 0.5, 1, 2, 4, 8, 24 h post dose) with n = 3 animals per time point (n = 21 total). […] Concentrations of 9 in the plasma and brain samples were determined using LC-MS/MS and WinNonlin 8.3 (Phoenix) was used for pharmacokinetic calculations. […]

ABL1-phosphorylated = biological target: T1, ABL1-phosphorylated (Homo sapiens, UniProt P00519); experiment: KINOMEScan; assay type: binding; settings: read-out: Percent Control
T1 construct: purchased Eurofins DiscoverX
T1 sequence (P00519 whole entry): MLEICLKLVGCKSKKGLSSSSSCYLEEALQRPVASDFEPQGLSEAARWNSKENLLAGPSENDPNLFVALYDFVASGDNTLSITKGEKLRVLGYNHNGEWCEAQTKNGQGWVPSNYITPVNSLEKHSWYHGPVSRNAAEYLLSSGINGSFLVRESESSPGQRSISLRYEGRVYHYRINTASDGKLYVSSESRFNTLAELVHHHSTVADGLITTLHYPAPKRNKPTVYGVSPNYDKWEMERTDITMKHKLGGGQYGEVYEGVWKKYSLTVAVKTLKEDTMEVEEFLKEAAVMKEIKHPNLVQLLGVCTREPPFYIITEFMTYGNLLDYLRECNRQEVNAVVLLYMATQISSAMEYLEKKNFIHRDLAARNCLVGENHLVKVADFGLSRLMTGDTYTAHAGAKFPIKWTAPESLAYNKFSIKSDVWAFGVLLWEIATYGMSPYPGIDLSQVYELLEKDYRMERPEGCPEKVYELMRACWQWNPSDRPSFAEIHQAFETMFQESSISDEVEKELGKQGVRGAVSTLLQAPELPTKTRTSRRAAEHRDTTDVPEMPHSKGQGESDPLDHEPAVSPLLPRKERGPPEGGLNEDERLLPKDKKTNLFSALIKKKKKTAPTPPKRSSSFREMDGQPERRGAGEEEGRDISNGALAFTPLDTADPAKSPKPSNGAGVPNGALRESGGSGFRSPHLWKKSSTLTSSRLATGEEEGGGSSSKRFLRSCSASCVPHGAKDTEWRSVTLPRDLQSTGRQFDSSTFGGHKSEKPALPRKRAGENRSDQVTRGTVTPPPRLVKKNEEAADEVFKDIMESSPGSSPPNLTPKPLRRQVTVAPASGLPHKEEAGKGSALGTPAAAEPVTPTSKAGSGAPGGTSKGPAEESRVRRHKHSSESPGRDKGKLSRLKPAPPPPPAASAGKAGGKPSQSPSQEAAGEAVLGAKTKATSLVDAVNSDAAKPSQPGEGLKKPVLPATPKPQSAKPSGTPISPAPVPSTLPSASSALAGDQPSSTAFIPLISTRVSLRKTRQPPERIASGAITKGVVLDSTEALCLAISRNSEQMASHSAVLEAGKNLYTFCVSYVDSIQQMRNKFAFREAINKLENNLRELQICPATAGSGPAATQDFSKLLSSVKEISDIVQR
Description: (§2) Percent control was mapped onto the kinome tree using TREEspot.

ARK5 = biological target: T2, ARK5 (Homo sapiens, UniProt O60285); experiment: KINOMEScan; assay type: binding; settings: ARK5, 1 µM; read-out: Percent Control
T2 construct: purchased Eurofins DiscoverX (KINOMEscan)
T2 sequence (O60285 whole entry): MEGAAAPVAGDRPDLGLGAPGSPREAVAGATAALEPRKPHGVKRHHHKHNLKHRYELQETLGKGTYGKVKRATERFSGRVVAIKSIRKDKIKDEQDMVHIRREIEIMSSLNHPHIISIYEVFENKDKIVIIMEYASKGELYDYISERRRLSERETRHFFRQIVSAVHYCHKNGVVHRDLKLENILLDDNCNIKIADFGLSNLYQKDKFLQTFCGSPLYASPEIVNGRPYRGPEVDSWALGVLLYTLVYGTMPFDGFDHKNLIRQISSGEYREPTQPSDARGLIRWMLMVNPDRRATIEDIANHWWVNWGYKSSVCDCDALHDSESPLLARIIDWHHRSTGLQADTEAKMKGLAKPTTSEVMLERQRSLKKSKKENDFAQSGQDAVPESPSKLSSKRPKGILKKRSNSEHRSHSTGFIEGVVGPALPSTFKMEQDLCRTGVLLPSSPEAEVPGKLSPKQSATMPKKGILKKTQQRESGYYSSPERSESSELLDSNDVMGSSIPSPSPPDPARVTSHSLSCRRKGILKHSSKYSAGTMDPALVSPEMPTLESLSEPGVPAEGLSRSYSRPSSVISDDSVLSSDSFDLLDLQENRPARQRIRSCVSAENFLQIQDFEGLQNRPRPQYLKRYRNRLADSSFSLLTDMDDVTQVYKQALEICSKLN
Description: as §2

TA98 = system: TA98; set-up: species or system Salmonella;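 on Count (# of wells): Revertant-positive wells among 48 replicate wells per concentration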
Description: (§1) Compounds were assessed for mutagenicity at the Eurofins Panlabs in 384-well plates using four Salmonella strains: TA98, to probe for frameshift mutation (with quercetin as control), TA100 and TA1535, to probe for base pair insertions/deletions (with streptozotocin as control), and TA1537, to probe for frameshift mutations (with aminacridine as control) as previously described.[78] […] A concurrent bacterial cytotoxicity assay was run at 0.6, 1.2, 2.5, 5, 10, 25, 50, and 100 μM to rule out false negatives. Bacterial cytotoxicity was expressed as percent of control growth (OD650). Compounds with growth of less than 60% control were flagged and considered bacterial cytotoxic. […] Significances of the positive counts between the treatment and control were determined using a one-tailed Fisher’s exact test.

TA100 = system: TA100; set-up: species or system Salmonella;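 on Count (# of wells): Revertant-positive wells among 48 replicate wells per concentration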
Description: as §1

TA1537 = system: TA1537; set-up: species or system Salmonella;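 on Count (# of wells): Revertant-positive wells among 48 replicate wells per concentration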
Description: as §1

`COc1cc2ncnc(Nc3cccc(Cl)c3F)c2cc1OCCON1CCN(C)CC1` [Compound 9, N-(3-Chloro-2-fluorophenyl)-7-methoxy-6-(2-((4-methylpiperazin-1-yl)oxy)ethoxy)quinazolin-4-amine] gave a Kp at 24 h ([1]; read-out: Kp brain (AUCinf)) of 0.95, a Kp uu at 24 h ([1]; read-out: Kp,uu brain (AUCinf)) of 0.33 and a remaining binding at 1 µM (ABL1-phosphorylated) of 7.7%. The remaining binding at 1 µM (ARK5) was 100%, the “Count (# of wells)” value (TA98; TA98+S9, 1.0E-04 M) was 0 and the “Positive Significance (- to +++)” value (TA98; TA98+S9, 1.0E-04 M) was “-”. The “Count (# of wells)” value (TA98; TA98+S9, 1.0E-05 M) was 2, the “Positive Significance (- to +++)” value (TA98; TA98+S9, 1.0E-05 M) was “-” and the “Count (# of wells)” value (TA98; TA98+S9, 5.0E-05 M) was 1. For the same compound, the “Positive Significance (- to +++)” value (TA98; TA98+S9, 5.0E-05 M) was “-”, the “Count (# of wells)” value (TA98; TA98+S9, 5.0E-06 M) was 0 and the “Positive Significance (- to +++)” value (TA98; TA98+S9, 5.0E-06 M) was “-”. The “Count (# of wells)” value (TA98; TA98-S9, 1.0E-04 M) was 0, the “Positive Significance (- to +++)” value (TA98; TA98-S9, 1.0E-04 M) was “-” and the “Count (# of wells)” value (TA98; TA98-S9, 1.0E-05 M) was 0. For the same compound, the “Positive Significance (- to +++)” value (TA98; TA98-S9, 1.0E-05 M) was “-”, the “Count (# of wells)” value (TA98; TA98-S9, 5.0E-05 M) was 2 and the “Positive Significance (- to +++)” value (TA98; TA98-S9, 5.0E-05 M) was “-”. The “Count (# of wells)” value (TA98; TA98-S9, 5.0E-06 M) was 0, the “Positive Significance (- to +++)” value (TA98; TA98-S9, 5.0E-06 M) was “-” and the “Count (# of wells)” value (TA100; TA100+S9, 1.0E-04 M) was 0. The “Positive Significance (- to +++)” value (TA100; TA100+S9, 1.0E-04 M) was “-”, the “Count (# of wells)” value (TA100; TA100+S9, 1.0E-05 M) was 3 and the “Positive Significance (- to +++)” value (TA100; TA100+S9, 1.0E-05 M) was “-”. The “Count (# of wells)” value (TA100; TA100+S9, 5.0E-05 M) was 0, the “Positive Significance (- to +++)” value (TA100; TA100+S9, 5.0E-05 M) was “-” and the “Count (# of wells)” value (TA100; TA100+S9, 5.0E-06 M) was 3. The “Positive Significance (- to +++)” value (TA100; TA100+S9, 5.0E-06 M) was “-”, the “Count (# of wells)” value (TA100; TA100-S9, 1.0E-04 M) was 0 and the “Positive Significance (- to +++)” value (TA100; TA100-S9, 1.0E-04 M) was “-”. For the same compound, the “Count (# of wells)” value (TA100; TA100-S9, 1.0E-05 M) was 4, the “Positive Significance (- to +++)” value (TA100; TA100-S9, 1.0E-05 M) was “-” and the “Count (# of wells)” value (TA100; TA100-S9, 5.0E-05 M) was 0. The “Positive Significance (- to +++)” value (TA100; TA100-S9, 5.0E-05 M) was “-”, the “Count (# of wells)” value (TA100; TA100-S9, 5.0E-06 M) was 1 and the “Positive Significance (- to +++)” value (TA100; TA100-S9, 5.0E-06 M) was “-”. For the same compound, the “Count (# of wells)” value (TA1537; TA1537+S9, 1.0E-04 M) was 1, the “Positive Significance (- to +++)” value (TA1537; TA1537+S9, 1.0E-04 M) was “-” and the “Count (# of wells)” value (TA1537; TA1537+S9, 1.0E-05 M) was 5. The “Positive Significance (- to +++)” value (TA1537; TA1537+S9, 1.0E-05 M) was “-”, the “Count (# of wells)” value (TA1537; TA1537+S9, 5.0E-05 M) was 4 and the “Positive Significance (- to +++)” value (TA1537; TA1537+S9, 5.0E-05 M) was “-”. For the same compound, the “Count (# of wells)” value (TA1537; TA1537+S9, 5.0E-06 M) was 3, the “Positive Significance (- to +++)” value (TA1537; TA1537+S9, 5.0E-06 M) was “-” and the “Count (# of wells)” value (TA1537; TA1537-S9, 1.0E-04 M) was 0. The “Positive Significance (- to +++)” value (TA1537; TA1537-S9, 1.0E-04 M) was “-”, the “Count (# of wells)” value (TA1537; TA1537-S9, 1.0E-05 M) was 0 and the “Positive Significance (- to +++)” value (TA1537; TA1537-S9, 1.0E-05 M) was “-”. For the same compound, the “Count (# of wells)” value (TA1537; TA1537-S9, 5.0E-05 M) was 0, the “Positive Significance (- to +++)” value (TA1537; TA1537-S9, 5.0E-05 M) was “-” and the “Count (# of wells)” value (TA1537; TA1537-S9, 5.0E-06 M) was 1. The “Positive Significance (- to +++)” value (TA1537; TA1537-S9, 5.0E-06 M) was “-”.
